Target: T1, human recombinant Yes [a.a. 2–543 (end)] (Homo sapiens, UniProt P07947)
T1 construct: human recombinant Yes [a.a; 2–543 (end)]; purchased BPS Bioscience 40488
Assay: ADP-Glo kinase assay, inhibition rates of Yes phosphorylation activity (first and second screening)
Format: biochemical
Settings: 10 μmol L−1 compound; for First screening IR (inhibition rate): mean of n = 4 wells
Procedure, shortened: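 Hits from a first pass were rescreened after re-dissolution from fresh powder. The first pass reported the mean inhibition rate of quadruplicate wells per compound. Activity was that of recombinant human Yes [a.a. 2–543] kinase, read out with the ADP-Glo ADP-detection method.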

T1 sequence (P07947 2-543): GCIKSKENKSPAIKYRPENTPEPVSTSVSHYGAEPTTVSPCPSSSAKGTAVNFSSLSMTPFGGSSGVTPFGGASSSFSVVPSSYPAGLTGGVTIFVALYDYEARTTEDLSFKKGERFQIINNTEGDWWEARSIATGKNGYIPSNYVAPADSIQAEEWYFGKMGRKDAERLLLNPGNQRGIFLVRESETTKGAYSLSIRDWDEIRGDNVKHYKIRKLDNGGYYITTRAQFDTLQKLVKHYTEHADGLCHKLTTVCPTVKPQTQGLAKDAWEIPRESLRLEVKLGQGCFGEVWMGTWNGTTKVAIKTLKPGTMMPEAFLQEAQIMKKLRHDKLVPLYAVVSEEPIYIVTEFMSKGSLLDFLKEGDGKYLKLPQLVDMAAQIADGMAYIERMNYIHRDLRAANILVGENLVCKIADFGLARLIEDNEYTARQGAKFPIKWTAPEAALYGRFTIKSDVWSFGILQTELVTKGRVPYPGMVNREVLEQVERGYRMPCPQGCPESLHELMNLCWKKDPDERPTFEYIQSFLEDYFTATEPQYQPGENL

Row | Structure (SMILES) | First screening IR (inhibition rate) | Second screening IR (inhibition rate) (second screening, dissolved from fresh powder, n = 4)
1 | Cc1cc(C)cc(C(=O)N(c2cc(C)cc(C)c2)C2C=CS(=O)(=O)C2)c1 (stereo not shown) [Compound Z166605882] | 34% | –
2 | O=S1(=O)CC=C(S(=O)(=O)Cl)C1 [Compound Z57163400] | 4% | –
3 | Cc1cc(C(=O)CSc2nnc(-c3ccc4c(c3)OCO4)n2-c2ccccc2)c(C)n1C [Compound Z16254213] | 6% | –
4 | NC(=O)C(c1ccccc1)N1CCC(CCc2ccc(O)cc2)CC1 (stereo not shown) [Compound Z245304076] | -19% | –
5 | N#Cc1cccc(C(=O)NCc2nc(-c3ccc(F)cc3)n[nH]2)c1 [Compound Z1137567528] | 55% | –
6 | Cc1ccc(NC2CCN(Cc3ccncc3)CC2)c(CN(C)C)c1 [Compound Z1642185485] | 2% | –
7 | Cc1ccc(SCc2nc(N)nc(Nc3ccccc3C)n2)cc1C [Compound Z24835676] | -13% | –
8 | Cc1ccc(C)c(Cn2c(N3CCN(C/C=C/c4ccccc4)CC3)nc3c2c(=O)[nH]c(=O)n3C)c1 [Compound Z237733700] | 36% | –
9 | CCN(CC)S(=O)(=O)c1ccc(S(N)(=O)=O)cc1 [Compound Z45415602] | 1% | –
10 | CCn1ncc2c(C(=O)NC(C)C)cc(-c3ccccc3)nc21 [Compound Z223848612] | 6% | –
11 | CC(C)n1ncc2c(C(=O)Nc3ccccc3F)cc(-c3ccco3)nc21 [Compound Z216407296] | 37% | –
12 | Cc1cn2c3c(=O)n(CC(C)C)c(=O)n(C)c3nc2n1-c1ccc(S(N)(=O)=O)cc1 [Compound Z271111810] | 4% | –
13 | CC1(NC(=O)OC(C)(C)C)CCN(C(=O)c2cc3c(cc2O)CCCC3)CC1 [Compound Z1769013356] | -20% | –
14 | O=C(CCc1ccc(S(=O)(=O)N2CCCC2)cc1)NCC(c1ccccc1Cl)N1CCCC1 (stereo not shown) [Compound Z166811416] | -3% | –
15 | CCCN(S(=O)(=O)c1ccc(C)cc1)S(=O)(=O)c1ccc(Cl)cc1 [Compound Z45422005] | 3% | –
16 | Cc1cc(/C(O)=C2\C(=O)C(=O)N(CCN3CCOCC3)C2c2ccc(F)cc2)ccc1OCC(C)C (stereo not shown) [Compound Z56865693] | -1% | –
17 | Cc1cc(C(=O)Nc2ccc3c(c2)CCC3)ccc1-n1cnnn1 [Compound Z365246124] | 9% | –
18 | COc1cc(/C=C(\C#N)C(=O)NC2CCCCC2)ccc1OCC(=O)Nc1ccc(Br)cc1 [Compound Z44319326] | -16% | –
19 | COCCN(CCC#N)S(=O)(=O)c1ccccc1S(C)(=O)=O [Compound Z1116705979] | 42% | –
20 | Cc1cc(S(C)(=O)=O)c(C)c(S(=O)(=O)N2CCCC(C)C2)c1 (stereo not shown) [Compound Z1145185785] | 14% | –
21 | O=C(/C=c1/[nH]c(=O)/c(=C\c2ccc(Cl)cc2)s1)c1ccncc1 [Compound Z319403812] | 8% | –
22 | CC(C)c1noc2nc(-c3ccncc3)cc(C(=O)O)c12 [Compound Z56646434] | -2% | –
23 | O=C(NCC(c1ccccc1Cl)N1CCCC1)C1CCN(C(=O)c2cccs2)CC1 (stereo not shown) [Compound Z87671607] | -35% | –

Row | Structure (SMILES) | First screening IR (inhibition rate) | Second screening IR (inhibition rate) (second screening, dissolved from fresh powder, n = 4)
24 | CC(=O)c1cccc(NC(=O)c2sc(Nc3ccc(C)cc3)c(C(=O)NCCN3CCOCC3)c2N)c1 [Compound Z56914008] | -3% | –
25 | O=C(c1ccc(OCC2CC2)cc1)N1CCC(c2nnc3n2CCC3)CC1 [Compound Z809056560] | 2% | –
26 | CC(C)CN(C1CCS(=O)(=O)C1)S(=O)(=O)c1ccc(Cl)cc1 (stereo not shown) [Compound Z45480638] | 1% | –
27 | O=C(CSc1ccc2c(c1)OCCCO2)Nc1ccc2c(c1)CCC2 [Compound Z18212324] | 14% | –
28 | Cc1ccnc(Nc2nc3ccccc3s2)n1 [Compound Z57289339] | -13% | –
29 | COc1cc(C)c(Sc2cnc(NC(=O)c3ccc(CCl)cc3)s2)cc1C(=O)N1CCN(C(C)=O)CC1 [Compound Z168829182] | 64% | 37%
30 | CC1CN(c2nccnc2C#N)CCN1C(=O)c1cccc(OCc2ccc(F)cc2)c1 (stereo not shown) [Compound Z1401935735] | 35% | –
31 | CCN1C/C(=C/c2ccc(F)cc2)c2nc3ccccc3c(C(=O)O)c2C1 [Compound Z46146538] | 5% | –
32 | CN(C)C(=O)c1ccc(Cl)c(NC(=O)N2CCc3ccccc3C2)c1 [Compound Z413336660] | 5% | –
33 | CCCCn1c(CN2CCN(C(=O)c3ccco3)CC2)nc2c1c(=O)[nH]c(=O)n2Cc1ccccc1 [Compound Z104777504] | -22% | –
34 | COc1cc(/C=N/Nc2nc(-c3ccncc3)nc3ccccc23)ccc1O [Compound Z56841676] | 18% | –
35 | C#CC(C)(C)N(C)S(=O)(=O)c1ccc(S(C)(=O)=O)cc1 [Compound Z1911236831] | -10% | –
36 | CCNC(=O)CN(CC)S(=O)(=O)c1cnn(-c2ccc(F)cc2)c1C [Compound Z1403244361] | 2% | –
37 | Cc1noc(C)c1COC(=O)c1c[nH]cc1-c1ccc(Cl)s1 [Compound Z796939908] | 0% | –
38 | CCn1c(CN2CCN(C(=O)c3ccccc3)CC2)nc2cc(S(=O)(=O)N3CCOCC3)ccc21 [Compound Z46404320] | 1% | –
39 | CC(=O)CCc1ccc(OCc2cc(=O)n3cc(C)ccc3n2)cc1 [Compound Z25824142] | -24% | –
40 | Cc1sc2nc(CN3CCC(C)CC3)nc(N3CCCN(C(=O)Cc4ccccn4)CC3)c2c1C [Compound Z915925636] | 0% | –
41 | CC(Sc1nnc2ccccn12)C(=O)Nc1nc(-c2ccc(F)c(F)c2)cs1 (stereo not shown) [Compound Z20241790] | 21% | –
42 | O=C(CCNC(=O)c1ccco1)Nc1ccc2nc(N3CCCC3)sc2c1 [Compound Z226430254] | 3% | –
43 | O=C(CCN1CCCC1=O)Nc1ccc(Oc2ccc(F)cc2)cn1 [Compound Z1129155203] | -12% | –
44 | COC(=O)c1ccc(COc2ccc(/C=C3/CC(C(C)(C)C)Cc4c3nc3ccccc3c4C(=O)O)cc2OC)cc1 (stereo not shown) [Compound Z46108841] | 15% | –
45 | COc1cc(NC(=O)COC(=O)c2cc(-c3cccs3)nc3onc(C)c23)cc(OC)c1 [Compound Z218834328] | 6% | –
46 | Cc1ccc(C(=O)CC2(O)C(=O)Nc3ccc(Cl)cc32)cc1 (stereo not shown) [Compound Z57172226] | 2% | –

Row | Structure (SMILES) | First screening IR (inhibition rate) | Second screening IR (inhibition rate) (second screening, dissolved from fresh powder, n = 4)
47 | Cc1cc(N2CCN(C(=O)c3cc(Br)cn3C(C)C)CC2)n[nH]1 [Compound Z1784719533] | -5% | –
48 | N#Cc1ccc(NC(=O)c2ccn(-c3ccc(F)cc3)n2)cc1 [Compound Z381174904] | 44% | –
49 | N#Cc1c(CN2CCN(S(=O)(=O)c3cc(Cl)ccc3Cl)CC2)cn2ccccc12 [Compound Z220381008] | -9% | –
50 | O=C(CCCNC(=O)c1ccc(-c2ccccc2F)o1)Nc1ccc(Cl)cc1 [Compound Z730571712] | 2% | –
51 | CCN(C(=O)c1ccc2c(c1)CC(c1ccccc1)OC2=O)c1ncc[nH]1 (stereo not shown) [Compound Z1474089033] | -8% | –
52 | Cc1cc(Cl)cc(Br)c1OCCNCCN(C)C.Cl [Compound Z237479802] | 9% | –
53 | C#CC(COC)NS(=O)(=O)CCCS(C)(=O)=O (stereo not shown) [Compound Z1787994415] | 4% | –
54 | COc1ccc(-n2c(-c3ccccc3)cn3c4c(=O)n(CCN5CCCCC5)c(=O)n(C)c4nc23)cc1 [Compound Z241121498] | -22% | –
55 | CCN(CCCNC(=O)c1cn(-c2ccccc2)nc1-c1cccnc1)c1ccccc1 [Compound Z96041573] | -8% | –
56 | Cc1c(N=C2SC(CC(=O)Nc3ccc(F)cc3)C(=O)N2CC2CCCCC2)c(=O)n(-c2ccccc2)n1C (stereo not shown) [Compound Z56900652] | 8% | –
57 | Cc1ccc(C)c(C(=O)CCC(=O)NC(C)c2nc3ccccc3[nH]2)c1 (stereo not shown) [Compound Z195395734] | 1% | –
58 | O=c1c([N+](=O)[O-])c(NCCCn2ccnc2)c2ccccc2n1-c1ccccc1 [Compound Z339024634] | -22% | –
59 | N#Cc1ccccc1CSCCNC(=O)c1ccc2nc[nH]c2c1 [Compound Z88237436] | -1% | –
60 | CCNC(=O)c1ccc(NC(C)C(O)c2ccc(F)cc2)nc1 (stereo not shown) [Compound Z1798329942] | 35% | –
61 | Cc1cccc(C)c1NC(=O)CN1CCN(C(C(=O)N2CCCCC2)c2ccccc2)CC1 (stereo not shown) [Compound Z106611352] | -11% | –
62 | C=CCN1C(=O)c2ccc(C(=O)Nc3cc(C)cc(C)c3)cc2C1=O [Compound Z30888972] | 20% | –
63 | O=S1(=O)C=CCC1 [Compound Z56764769] | 9% | –
64 | Cl.N#Cc1ccc(-c2cc(-c3ccccc3Cl)c3cc(Cl)ccc3n2)cc1 [Compound Z48951737] | 1% | –
65 | CCn1cnc2c1c(=O)n(CC(=O)N1CCC(Cc3ccccc3)CC1)c(=O)n2Cc1ccccc1 [Compound Z24103907] | 9% | –
66 | Cl.Clc1ccc(-c2cc(-c3ccccc3Cl)c3cc(Cl)ccc3n2)cc1 [Compound Z48951731] | -3% | –
67 | Cc1ccc(S(=O)(=O)CCCS(=O)(=O)N(C)C)c(C)c1 [Compound Z1134191614] | -1% | –
68 | O=C(Nc1nnc(SCc2ccc(F)cc2)s1)c1cccnc1Cl [Compound Z28653555] | 3% | –
69 | CC1CC(C)(C)CC2(C1)NC(=O)N(CN1CCN(c3ccc(C(F)(F)F)cn3)CC1)C2=O (stereo not shown) [Compound Z44255985] | 18% | –

Source: article PMC5607274, “An iterative compound screening contest method for identifying target protein inhibitors using the tyrosine-protein kinase Yes” (Scientific Reports, 2017)
